The values below come from patent publication EP0108285B1, “Antiviral purine derivatives” (THE WELLCOME FOUNDATION LIMITED, priority 1982, dated 1984).

Broadly, the solubility is the concentration that dissolves in the medium under given conditions. Read a low solubility as little dissolved substance.

≈ marks a conversion by molar mass, not a printed value.

The nature of one data set: physchem. Conditions: water. It counts as physicochemical. From the text:
This improved water-solubility enables 6-deoxyacyclovir to be used in a greater variety of aqueous pharmaceutical formulations which require some solubilisation of the drug.

The subject of data set [1] is ICI strain of herpes simplex virus Type 1. Kind of data set: Antiviral activity in mice infected intracerebrally with herpes simplex virus. The format is in vivo, CD1 mice. Conditions: for Mean Reciprocal Survival times / Survival Times (Days): 100mg/kg/dose; for Mean Reciprocal Survival times: virus controls 0.407; for Survival Times (Days): 2-3 hours after infection and twice daily for 4 days, observed over 14 days, groups of 10 mice. As to the method:
The mice were divided into groups of 10, one group acting as untreated virus controls and the other groups receiving respectively (A) acyclovir at 100mg/kg/dose (i) subcutaneously (s.c.) (ii) orally (iii) intraperitoneally (i.p.) (B) the compound of Example 1 (6-deoxyacyclovir) at 100mg/kg/dose i) subcutaneously (s.c.) ii) orally iii) intraperitoneally (i.p.). The treatment groups received dosages of the drug 2-3 hours after infection and twice daily for 4 days. Observations were made over 14 days survival times were recorded.

For a further data set, the target named is T1, xanthine oxidase (Bos taurus, UniProt P80457).
T1 construct: xanthine oxidase from bovine milk; from tissue; host or cells: bovine milk
T1 sequence (P80457 whole entry): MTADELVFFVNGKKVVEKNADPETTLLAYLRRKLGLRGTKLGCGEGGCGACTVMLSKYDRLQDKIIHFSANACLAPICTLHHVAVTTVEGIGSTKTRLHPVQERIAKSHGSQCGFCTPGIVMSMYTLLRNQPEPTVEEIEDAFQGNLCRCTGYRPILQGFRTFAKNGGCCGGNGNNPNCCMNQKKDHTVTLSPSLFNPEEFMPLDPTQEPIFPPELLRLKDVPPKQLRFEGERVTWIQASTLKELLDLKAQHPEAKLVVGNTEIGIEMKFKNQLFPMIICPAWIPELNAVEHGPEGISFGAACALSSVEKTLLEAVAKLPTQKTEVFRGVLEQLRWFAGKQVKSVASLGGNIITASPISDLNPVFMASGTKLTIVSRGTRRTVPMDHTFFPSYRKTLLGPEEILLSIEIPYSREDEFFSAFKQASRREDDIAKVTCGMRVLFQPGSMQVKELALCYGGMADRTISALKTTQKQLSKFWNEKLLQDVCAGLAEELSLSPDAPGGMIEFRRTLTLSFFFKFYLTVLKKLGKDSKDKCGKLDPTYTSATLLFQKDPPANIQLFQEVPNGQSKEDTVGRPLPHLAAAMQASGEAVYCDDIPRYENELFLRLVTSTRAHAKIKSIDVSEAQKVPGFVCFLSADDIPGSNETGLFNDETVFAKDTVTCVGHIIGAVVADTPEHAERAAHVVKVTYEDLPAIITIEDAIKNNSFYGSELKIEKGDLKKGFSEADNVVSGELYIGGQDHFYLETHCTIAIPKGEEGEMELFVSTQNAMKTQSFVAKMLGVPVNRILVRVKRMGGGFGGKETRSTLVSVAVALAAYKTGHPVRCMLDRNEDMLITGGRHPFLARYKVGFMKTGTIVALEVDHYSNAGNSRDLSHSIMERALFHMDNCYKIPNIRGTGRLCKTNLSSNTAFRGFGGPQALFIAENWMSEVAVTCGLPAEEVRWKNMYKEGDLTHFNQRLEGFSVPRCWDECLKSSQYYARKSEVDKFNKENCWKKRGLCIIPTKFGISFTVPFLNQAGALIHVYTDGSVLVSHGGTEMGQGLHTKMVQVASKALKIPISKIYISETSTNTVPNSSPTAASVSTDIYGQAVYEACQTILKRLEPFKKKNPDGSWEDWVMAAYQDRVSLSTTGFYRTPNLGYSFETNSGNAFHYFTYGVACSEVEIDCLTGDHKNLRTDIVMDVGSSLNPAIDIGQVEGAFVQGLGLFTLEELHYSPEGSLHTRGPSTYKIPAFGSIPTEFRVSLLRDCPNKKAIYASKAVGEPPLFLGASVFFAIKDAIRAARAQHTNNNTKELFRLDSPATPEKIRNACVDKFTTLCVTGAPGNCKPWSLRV
Description: Oxidation by xanthine oxidase (enzyme studies). It counts as biochemical. Conditions: xanthine oxidase from bovine milk; compared with 2-aminopurine. The text has this:
The discovery that the 6-hydrogen purine above can be readily converted into its corresponding 6-hydroxy analogue is surprising since in previous studies with xanthine oxidase from bovine milk (H. Lettre et al (1967) Biochem. Pharmacol., 16, 1747-1755; T. A. Krenitsky et al (1972) Arch. Biophys., 150, 585-599), it was shown that 9-substitution obliterates or greatly diminishes the rate at which a variety of purines are oxidised.

Data set [2] is described as follows: Toxicity study in beagle dogs, per os. It counts as in vivo. The note with it: 40mg/kg/day for 5 consecutive days, sacrificed at end of treatment or after a 2-week post-dose period. As to the method: Two male and 2 female beagle dogs were given 6-deoxyacyclovir per os ([…] daily for 5 consecutive days) at a dose level of 40mg/kg/day. There were no effects in 1 male and 1 female sacrificed at the end of the treatment period or in 1 male and 1 female sacrificed after a 2-week post-dose period.

The nature of data set [3]: Urinary excretion of acyclovir after oral dosing of rats (radioimmunoassay). It counts as in vivo, Long Evans male rats. The note with it: rat, dose 25 mg/kg, urine samples, read-out: %Dose Excreted as Acyclovir. As to the method: The following experiments carried out to determine the urinary excretion and plasma levels of acyclovir after oral dosing of rats with acyclovir, 6-deoxyacyclovir and the 6-amino analogue thereof i.e. 2,6-diamino-9-(2-hydroxyethoxymethyl)-purine, hereinafter referred to as aminoacyclovir.
Long Evans male rats were dosed by intragastric needle with the drug and placed in metabolic cages which separated urine from faeces. The collected urine and plasma samples were analyzed for acyclovir content by a radioimmunoassay.

For the compound `Nc1ncc2ncn(COCCO)c2n1` [6-Deoxyacyclovir, 2-Amino-9-(2-hydroxyethoxymethyl)-9H-purine], the solubility in the data set “physchem” stood at 50 mg/mL (≈ 239 mM). In addition, the “antiviral action compared with acyclovir” value in data set [1] (administered orally) is given as “more effective action than acyclovir”. The “Mean Reciprocal Survival times” value in data set [1] (i.p.) amounted to 0.233; in data set [1] (oral) it was 0.186; in data set [1] (s.c.) it was 0.289. For the same compound, in data set [1] (oral), the “Survival Times (Days)” value is listed as 1+2 1+4 2+5 3+6 1+8 1 survivor. Besides, at xanthine oxidase, the “rate of oxidation by the enzyme” value is recorded as “faster rate than the 9- unsubstituted purine”. For the same compound, the “effects (toxicity)” value in data set [2] is recorded as “no effects”.

In turn, `Nc1nc2c(ncn2COCCO)c(=O)[nH]1` [Acyclovir, 9-(2-hydroxyethoxymethyl)guanine, reference compound] showed a solubility in “physchem” of 1.23 mg/mL (≈ 5.46 mM). The “Survival Times (Days)” value in data set [1] (i.p.) is on record as 2+2 2+4 2+5 2+7 1 survivor. Besides, the figures for the “Mean Reciprocal Survival times” value in data set [1] (i.p.), in data set [1] (oral) and in data set [1] (s.c.) were 0.242, 0.325 and 0.261, respectively. Moreover, the dose excreted at 48 h in data set [3] came out at 19.2%.
